Experimental data published in ChEMBL document CHEMBL1201861, “Genomics of Drug Sensitity in Cancer screening data, Wellcome Trust Sanger Institute”.

What was measured:
EB2 = test: cells; format: functional, cell-based; conditions: Homo sapiens;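 also: growth inhibition of EB2 cells, read out with a cell viability assay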
Description: SANGER: Inhibition of human EB2 cell growth in a cell viability assay.

TYK-nu = test: cells; format: functional, cell-based; conditions: Homo sapiens;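 also: growth inhibition of human TYK-nu cells, read out by a cell viability assay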
Description: SANGER: Inhibition of human TYK-nu cell growth in a cell viability assay.

RT-4 = test: SANGER: Inhibition of human RT4 cell growth in a cell viability assay.; format: functional, cell-based
ME-180 = test: cells; format: functional, cell-based; conditions: Homo sapiens;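 also: cell viability assay measuring growth inhibition of ME-180 cells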
Description: SANGER: Inhibition of human ME-180 cell growth in a cell viability assay.

NCI-H2228 = test: cells; format: functional, cell-based; conditions: Homo sapiens;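 also: growth inhibition of human NCI-H2228 cells, read out by a cell viability assay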
Description: SANGER: Inhibition of human NCI-H2228 cell growth in a cell viability assay.

SW780 = test: cells; format: functional, cell-based; conditions: Homo sapiens;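 also: growth inhibition of the cells, read out with a cell viability assay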
Description: SANGER: Inhibition of human SW780 cell growth in a cell viability assay.

NCI-H2347 = test: cells; format: functional, cell-based; conditions: Homo sapiens;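 also: growth inhibition of the cell line, read out with a cell viability assay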
Description: SANGER: Inhibition of human NCI-H2347 cell growth in a cell viability assay.

TE-441-T = test: cells; format: functional, cell-based; conditions: Homo sapiens
Description: SANGER: Inhibition of human TE-441-T cell growth in a cell viability assay.

MEL-JUSO = test: cells; format: functional, cell-based; conditions: Homo sapiens;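 also: growth inhibition of human MEL-JUSO cells, read out with a cell viability assay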
Description: SANGER: Inhibition of human MEL-JUSO cell growth in a cell viability assay.

SNU-387 = test: cells; format: functional, cell-based; conditions: Homo sapiens
Description: SANGER: Inhibition of human SNU-387 cell growth in a cell viability assay.

RMG-I = test: cells; format: functional, cell-based; conditions: Homo sapiens;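 also: growth inhibition of human RMG-I cells, read out with a cell viability assay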
Description: SANGER: Inhibition of human RMG-I cell growth in a cell viability assay.

NCI-H748 = test: cells; format: functional, cell-based; conditions: Homo sapiens;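 also: growth inhibition of NCI-H748 cells, measured by a cell viability assay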
Description: SANGER: Inhibition of human NCI-H748 cell growth in a cell viability assay.

KYSE-150 cell line = test: cells; format: functional, cell-based; conditions: Homo sapiens;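 also: growth inhibition of human KYSE-150 cells, read out with a cell viability assay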
Description: SANGER: Inhibition of human KYSE-150 cell growth in a cell viability assay.

C3A = test: cells; format: functional, cell-based; conditions: Homo sapiens;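 also: growth inhibition of C3A human cells, quantified with a cell viability readout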
Description: SANGER: Inhibition of human C3A cell growth in a cell viability assay.

Daudi = test: cells; format: functional, cell-based; conditions: Homo sapiens;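 also: growth inhibition of Daudi cells, read out by a viability assay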
Description: SANGER: Inhibition of human Daudi cell growth in a cell viability assay.

D-542MG = test: cells; format: functional, cell-based; conditions: Homo sapiens
Description: SANGER: Inhibition of human D-542MG cell growth in a cell viability assay.

HLE = test: cells; format: functional, cell-based; conditions: Homo sapiens;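 also: growth inhibition of human HLE cells, read out by a cell viability assay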
Description: SANGER: Inhibition of human HLE cell growth in a cell viability assay.

HCT-116 = test: cells; format: functional, cell-based; conditions: Homo sapiens
Description: SANGER: Inhibition of human HCT-116 cell growth in a cell viability assay.

EGI-1 = test: cells; format: functional, cell-based; conditions: Homo sapiens;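 also: cell viability readout used to gauge growth inhibition of EGI-1 cells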
Description: SANGER: Inhibition of human EGI-1 cell growth in a cell viability assay.

SNU-423 = test: cells; format: functional, cell-based; conditions: Homo sapiens
Description: SANGER: Inhibition of human SNU-423 cell growth in a cell viability assay.

ChaGo-K-1 = test: cells; format: functional, cell-based; conditions: Homo sapiens;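 also: growth inhibition of ChaGo-K-1 cells, read out with a cell viability assay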
Description: SANGER: Inhibition of human ChaGo-K-1 cell growth in a cell viability assay.

KYSE-270 = test: cells; format: functional, cell-based; conditions: Homo sapiens;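 also: cell growth inhibition measured with a viability assay in the human KYSE-270 line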
Description: SANGER: Inhibition of human KYSE-270 cell growth in a cell viability assay.

KYSE-180 = test: cells; format: functional, cell-based; conditions: Homo sapiens;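 also: growth inhibition of KYSE-180 cells, read out with a cell viability assay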
Description: SANGER: Inhibition of human KYSE-180 cell growth in a cell viability assay.

PLC-PRF-5 = test: cells; format: functional, cell-based; conditions: Homo sapiens;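 also: growth inhibition of human PLC-PRF-5 cells, read out with a viability assay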
Description: SANGER: Inhibition of human PLC-PRF-5 cell growth in a cell viability assay.

NCI-H322M = test: cells; format: functional, cell-based; conditions: Homo sapiens;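 also: cell viability assay measuring inhibition of growth of human NCI-H322M cells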
Description: SANGER: Inhibition of human NCI-H322M cell growth in a cell viability assay.

RERF-LC-MS = test: cells; format: functional, cell-based; conditions: Homo sapiens;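 also: growth inhibition of human RERF-LC-MS cells, read out by a cell viability assay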
Description: SANGER: Inhibition of human RERF-LC-MS cell growth in a cell viability assay.

PC-14 = test: cells; format: functional, cell-based; conditions: Homo sapiens;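 also: cell viability assay measuring inhibition of PC-14 cell growth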
Description: SANGER: Inhibition of human PC-14 cell growth in a cell viability assay.

HuP-T4 = test: cells; format: functional, cell-based; conditions: Homo sapiens;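 also: cell viability assay measuring how much HuP-T4 cell growth is inhibited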
Description: SANGER: Inhibition of human HuP-T4 cell growth in a cell viability assay.

RPMI 8402 = test: SANGER: Inhibition of human RPMI-8402 cell growth in a cell viability assay.; format: functional, cell-based
647-V = test: cells; format: functional, cell-based; conditions: Homo sapiens;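 also: growth inhibition of 647-V cells, read out with a cell viability assay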
Description: SANGER: Inhibition of human 647-V cell growth in a cell viability assay.

LB996-RCC = test: cells; format: functional, cell-based; conditions: Homo sapiens
Description: SANGER: Inhibition of human LB996-RCC cell growth in a cell viability assay.

PANC-03-27 = test: cells; format: functional, cell-based; conditions: Homo sapiens
Description: SANGER: Inhibition of human PANC-03-27 cell growth in a cell viability assay.

KU-19-19 = test: cells; format: functional, cell-based; conditions: Homo sapiens
Description: SANGER: Inhibition of human KU-19-19 cell growth in a cell viability assay.

HPAF-II = test: cells; format: functional, cell-based; conditions: Homo sapiens;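 also: growth inhibition of HPAF-II cells, read out with a cell viability assay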
Description: SANGER: Inhibition of human HPAF-II cell growth in a cell viability assay.

KMS-12-PE = test: cells; format: functional, cell-based; conditions: Homo sapiens;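 also: growth inhibition of human KMS-12-PE cells, measured with a cell viability assay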
Description: SANGER: Inhibition of human KMS-12-PE cell growth in a cell viability assay.

IST-SL2 = test: cells; format: functional, cell-based; conditions: Homo sapiens;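 also: growth inhibition of human IST-SL2 cells, read out by a cell viability assay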
Description: SANGER: Inhibition of human IST-SL2 cell growth in a cell viability assay.

HT1197 = test: cells; format: functional, cell-based, HT-1197; conditions: Homo sapiens
Description: SANGER: Inhibition of human HT-1197 cell growth in a cell viability assay.

BFTC-909 = test: cells; format: functional, cell-based; conditions: Homo sapiens
Description: SANGER: Inhibition of human BFTC-909 cell growth in a cell viability assay.

COR-L279 = test: SANGER: Inhibition of human COR-L279 cell growth in a cell viability assay.; format: functional, cell-based
MDA-MB-468 = test: cells; format: functional, cell-based; conditions: Homo sapiens
Description: SANGER: Inhibition of human MDA-MB-468 cell growth in a cell viability assay.

NCI-H889 = test: cells; format: functional, cell-based; conditions: Homo sapiens;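 also: cell growth inhibition of the cell line, read out with a viability assay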
Description: SANGER: Inhibition of human NCI-H889 cell growth in a cell viability assay.

SW1463 = test: cells; format: functional, cell-based; conditions: Homo sapiens;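 also: growth inhibition of SW1463 cells, determined with a cell viability assay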
Description: SANGER: Inhibition of human SW1463 cell growth in a cell viability assay.

A 172 = test: cells; format: functional, cell-based; conditions: Homo sapiens;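 also: growth inhibition of A172 cells, measured with a cell viability readout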
Description: SANGER: Inhibition of human A172 cell growth in a cell viability assay.

ECC4 = test: cells; format: functional, cell-based; conditions: Homo sapiens;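 also: growth inhibition of ECC4 cells, read out with a cell viability assay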
Description: SANGER: Inhibition of human ECC4 cell growth in a cell viability assay.

NCI-H1703 = test: cells; format: functional, cell-based; conditions: Homo sapiens;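 also: growth inhibition of NCI-H1703 cells, read out via a cell viability assay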
Description: SANGER: Inhibition of human NCI-H1703 cell growth in a cell viability assay.

CAL-62 = test: cells; format: functional, cell-based; conditions: Homo sapiens;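 also: growth inhibition of CAL-62 cells, read out with a cell viability assay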
Description: SANGER: Inhibition of human CAL-62 cell growth in a cell viability assay.

SW48 = test: cells; format: functional, cell-based; conditions: Homo sapiens;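 also: growth inhibition of SW48 cells, read out with a cell viability assay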
Description: SANGER: Inhibition of human SW48 cell growth in a cell viability assay.

NB1 = test: cells; format: functional, cell-based; conditions: Homo sapiens;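 also: reduction of NB1 cell proliferation, read out with a viability assay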
Description: SANGER: Inhibition of human NB1 cell growth in a cell viability assay.

EVSA-T = test: cells; format: functional, cell-based; conditions: Homo sapiens;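 also: growth inhibition of EVSA-T cells, read out with a cell viability assay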
Description: SANGER: Inhibition of human EVSA-T cell growth in a cell viability assay.

COR-L23 = test: cells; format: functional, cell-based; conditions: Homo sapiens;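 also: cell viability assay measuring how strongly compounds suppress growth of COR-L23 cells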
Description: SANGER: Inhibition of human COR-L23 cell growth in a cell viability assay.

CAL-51 = test: cells; format: functional, cell-based; conditions: Homo sapiens;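 also: human CAL-51 cell line, growth inhibition read out via a cell viability assay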
Description: SANGER: Inhibition of human CAL-51 cell growth in a cell viability assay.

A253 cell line = test: cells; format: functional, cell-based; conditions: Homo sapiens;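 also: growth inhibition of A253 cells, read out with a cell viability assay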
Description: SANGER: Inhibition of human A253 cell growth in a cell viability assay.

MEL-HO = test: cells; format: functional, cell-based; conditions: Homo sapiens
Description: SANGER: Inhibition of human MEL-HO cell growth in a cell viability assay.

NCI-H2081 = test: cells; format: functional, cell-based; conditions: Homo sapiens;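 also: growth inhibition of human NCI-H2081 cells, read out with a cell viability assay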
Description: SANGER: Inhibition of human NCI-H2081 cell growth in a cell viability assay.

SNU-16 = test: cells; format: functional, cell-based; conditions: Homo sapiens;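 also: growth inhibition of human SNU-16 cells, determined with a cell viability readout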
Description: SANGER: Inhibition of human NCI-SNU-16 cell growth in a cell viability assay.

AGS = test: cells; format: functional, cell-based; conditions: Homo sapiens;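 also: growth inhibition of AGS cells, determined with a cell viability assay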
Description: SANGER: Inhibition of human AGS cell growth in a cell viability assay.

MONO-MAC-6 = test: cells; format: functional, cell-based; conditions: Homo sapiens;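 also: cell viability assay measuring growth inhibition of human MONO-MAC-6 cells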
Description: SANGER: Inhibition of human MONO-MAC-6 cell growth in a cell viability assay.

PANC-08-13 = test: cells; format: functional, cell-based; conditions: Homo sapiens
Description: SANGER: Inhibition of human PANC-08-13 cell growth in a cell viability assay.

T47D = test: cells; format: functional, cell-based; conditions: Homo sapiens;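 also: growth inhibition of human T47D cells, measured with a cell viability assay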
Description: SANGER: Inhibition of human T47D cell growth in a cell viability assay.

Molecule `N#C/C(=C1/Nc2ccccc2S1)c1ccnc(NCCc2cccnc2)n1` has an IC50 (EB2) greater than 8000 nM, an IC50 (TYK-nu) of 1750 nM and an IC50 (RT-4) greater than 8000 nM. It also gave an IC50 (ME-180) greater than 8000 nM, an IC50 (NCI-H2228) of 4480 nM and an IC50 (SW780) greater than 8000 nM. The IC50 (NCI-H2347) was greater than 8000 nM, the IC50 (TE-441-T) was greater than 8000 nM and the IC50 (MEL-JUSO) was 3650 nM. It also gave an IC50 (SNU-387) of 3800 nM, an IC50 (RMG-I) greater than 8000 nM and an IC50 (NCI-H748) greater than 8000 nM. For the same molecule, the IC50 (KYSE-150 cell line) was greater than 8000 nM, the IC50 (C3A) was 2810 nM and the IC50 (Daudi) was 6540 nM. The IC50 (D-542MG) was greater than 8000 nM, the IC50 (HLE) was 3470 nM and the IC50 (HCT-116) was greater than 8000 nM. For the same molecule, the IC50 (EGI-1) was greater than 8000 nM, the IC50 (SNU-423) was 2300 nM and the IC50 (ChaGo-K-1) was 4590 nM. It also gave an IC50 (KYSE-270) of 5970 nM, an IC50 (KYSE-180) greater than 8000 nM and an IC50 (PLC-PRF-5) greater than 8000 nM. For the same molecule, the IC50 (NCI-H322M) was greater than 8000 nM, the IC50 (RERF-LC-MS) was greater than 8000 nM and the IC50 (PC-14) was 3620 nM. For the same molecule, the IC50 (HuP-T4) was 4440 nM, the IC50 (RPMI 8402) was greater than 8000 nM and the IC50 (647-V) was greater than 8000 nM. The IC50 (LB996-RCC) was 2860 nM, the IC50 (PANC-03-27) was 2900 nM and the IC50 (KU-19-19) was greater than 8000 nM. It also gave an IC50 (HPAF-II) greater than 8000 nM, an IC50 (KMS-12-PE) greater than 8000 nM and an IC50 (IST-SL2) greater than 8000 nM. The IC50 (HT1197) was greater than 8000 nM, the IC50 (BFTC-909) was greater than 8000 nM and the IC50 (COR-L279) was greater than 8000 nM. It also gave an IC50 (MDA-MB-468) greater than 8000 nM, an IC50 (NCI-H889) greater than 8000 nM and an IC50 (SW1463) greater than 8000 nM. It also gave an IC50 (A 172) of 2160 nM, an IC50 (ECC4) greater than 8000 nM and an IC50 (NCI-H1703) greater than 8000 nM. It also gave an IC50 (CAL-62) of 5890 nM, an IC50 (SW48) of 2160 nM and an IC50 (NB1) greater than 8000 nM. The IC50 (EVSA-T) was greater than 8000 nM, the IC50 (COR-L23) was greater than 8000 nM and the IC50 (CAL-51) was 5300 nM. For the same molecule, the IC50 (A253 cell line) was greater than 8000 nM, the IC50 (MEL-HO) was 5460 nM and the IC50 (NCI-H2081) was greater than 8000 nM. The IC50 (SNU-16) was greater than 8000 nM, the IC50 (AGS) was greater than 8000 nM and the IC50 (MONO-MAC-6) was greater than 8000 nM. The IC50 (PANC-08-13) was 3630 nM and the IC50 (T47D) was greater than 8000 nM.
Molecule `Fc1cc(-c2cc[nH]/c(=N/c3ccc(-n4cnc(N5CCOCC5)n4)cc3)n2)cc(N2CCOCC2)c1` has an IC50 (EB2) of 581 nM, an IC50 (TYK-nu) of 2620 nM and an IC50 (RT-4) of 3560 nM. For the same molecule, the IC50 (ME-180) was 1410 nM, the IC50 (NCI-H2228) was 527 nM and the IC50 (SW780) was 1630 nM. The IC50 (NCI-H2347) was 1020 nM, the IC50 (TE-441-T) was 316 nM and the IC50 (MEL-JUSO) was 286 nM. The IC50 (SNU-387) was 417 nM, the IC50 (RMG-I) was 1250 nM and the IC50 (NCI-H748) was 1080 nM. It also gave an IC50 (KYSE-150 cell line) of 664 nM, an IC50 (C3A) of 566 nM and an IC50 (Daudi) of 381 nM. The IC50 (D-542MG) was 357 nM, the IC50 (HLE) was 624 nM and the IC50 (HCT-116) was 164 nM. The IC50 (EGI-1) was 686 nM, the IC50 (SNU-423) was 378 nM and the IC50 (ChaGo-K-1) was 1370 nM. The IC50 (KYSE-270) was 222 nM, the IC50 (KYSE-180) was 272 nM and the IC50 (PLC-PRF-5) was 3950 nM. It also gave an IC50 (NCI-H322M) greater than 5120 nM, an IC50 (RERF-LC-MS) of 874 nM and an IC50 (PC-14) of 877 nM. It also gave an IC50 (HuP-T4) of 3260 nM, an IC50 (RPMI 8402) of 605 nM and an IC50 (647-V) of 401 nM. It also gave an IC50 (LB996-RCC) of 522 nM, an IC50 (PANC-03-27) of 271 nM and an IC50 (KU-19-19) of 5100 nM. It also gave an IC50 (HPAF-II) of 512 nM, an IC50 (KMS-12-PE) of 1160 nM and an IC50 (IST-SL2) of 457 nM. For the same molecule, the IC50 (HT1197) was 611 nM, the IC50 (BFTC-909) was 838 nM and the IC50 (COR-L279) was 1130 nM. For the same molecule, the IC50 (MDA-MB-468) was 944 nM, the IC50 (NCI-H889) was 2260 nM and the IC50 (SW1463) was 649 nM. For the same molecule, the IC50 (A 172) was 669 nM, the IC50 (ECC4) was 2730 nM and the IC50 (NCI-H1703) was 591 nM. The IC50 (CAL-62) was 893 nM, the IC50 (SW48) was 742 nM and the IC50 (NB1) was 447 nM. It also gave an IC50 (EVSA-T) of 1270 nM, an IC50 (COR-L23) of 1000 nM and an IC50 (CAL-51) of 219 nM. The IC50 (A253 cell line) was 261 nM, the IC50 (MEL-HO) was 190 nM and the IC50 (NCI-H2081) was 1500 nM. For the same molecule, the IC50 (SNU-16) was greater than 5120 nM, the IC50 (AGS) was 415 nM and the IC50 (MONO-MAC-6) was 544 nM. The IC50 (PANC-08-13) was 90 nM and the IC50 (T47D) was greater than 5120 nM.
